{
  "source": "patent US20160290995A1",
  "about": "“METHODS OF SELECTING AKT AGONISTS OR ANTAGONISTS” (OREGON HEALTH & SCIENCE UNIVERSITY, priority 2015, published 2016)",
  "key": {"[1]": {"tested_on": "Akt", "experiment": "FOXO1-clover reporter live-cell imaging (relative nuclear intensity) in C3H10T1/2 fibroblasts", "assay_type": "cell-based, mouse", "details": "for effect of inhibitor on IGF-I-mediated reporter localization: 90 min, graded inhibitor concentrations; for IC50: Mus musculus, C3H 10T1/2; for mean rate of nuclear import of FOXO1-clover: after R3-IGF-I 250 pM; for change of nuclear levels of the reporter on growth factor addition (result in words): different concentrations; for change of nuclear levels of the reporter on growth factor addition (result in words) / time to half-maximal translocation/accumulation of reporter in the cytoplasm after onset of incubation / time to maximal translocation values: cells pre-incubated in SFM; for time to half-maximal translocation/accumulation of reporter in the cytoplasm after onset of incubation / time to maximal translocation values: different growth factor concentrations", "method": "(§1) Cells were imaged every 2-min for 60 min. At the end of the incubation period whole cell lysates were collected.\n10T1/2 cells and C2 myoblasts were incubated in serum-free medium for 90 min. R3-IGF-I was added in supplemented FluoroBrite [0 to 500 pM], and cells were imaged every 2-min for 60 min. […]\n(§2) Live cell imaging was performed using an EVOS FL Auto microscope with a stage top incubator that was maintained at 37° C. and 95% humidified air with 5% CO2. Images were collected at 100× magnification at different intervals, using a 10× Fluorite objective (numerical aperture: 0.3), and a GFP light cube (excitation peak, 472/22 nm; emission peak, 510/42 nm). Images were analyzed with the NIH ImageJ plug-in Fiji (NIH, Bethesda, Md.), after using the Polynomial Fit plug-in to subtract background fluorescence, the Stack Reg (rigid registration) plug-in to register images, and the Gaussian Blur plug-in (at 2-pixels) to average fluorescence across pixels. Individual cells were manually tracked using the mTrackJ plug-in (Meijering E et al, Methods Enzymol 504, 183-200 (2012); incorporated by reference herein) by selecting a single point in the nucleus. Cells that died, divided, or migrated out of frame were excluded from analysis. In experiments performed in 6-well dishes, two locations on opposite sides of the well were imaged, while for studies using 24-well plates, one central location was imaged. In each location, at least 25 cells were tracked."}, "[2]": {"tested_on": "Akt phosphorylation", "experiment": "Immunoblotting of Akt and PRAS40 phosphorylation in 10T1/2 whole cell lysates", "assay_type": "cell-based, mouse", "details": "for time course of Akt and PRAS40 phosphorylation (result in words): insulin 1400 pM, EGF 4.2 nM, PDGF-AA 1400 pM, PDGF-BB 104 pM, up to 90 min", "method": "as §1\nWhole cell protein lysates were prepared as described (Mukherjee A and Rotwein P, Mol Endorcrinol 22, 1238-1250 (2008); incorporated by reference herein). Protein aliquots (15 μg/lane) were resolved by SDS-PAGE (12% separating gel), followed by transfer to Immobilon-FL membranes, and blocking with 50% AquaBlock solution. Membranes were incubated sequentially with primary and secondary antibodies, as described (Mukherjee and Rotwein, 2008 supra). Primary antibodies were incubated for 12-16 hr at a 1:1000 dilution, except for α-tubulin (1:10,000), and secondary antibodies for 90 min at 1:5000. Images were captured using the LiCoR Odyssey and version 3.0 analysis software (Lincoln, Nebr.).\nC3H10T1/2 cells stably expressing FoxO1-clover were incubated in SFM with Fluorobrite imaging media for 90 min followed by addition of insulin [1400 pM], EGF [4.2 nM], PDGF-AA [1400 pM], or PDGF BB [104 pM]. Whole protein lysates were collected after 0, 5, 15, 30, 60, and 90 min of growth factor exposure by washing cells twice with cold PBS and addition of RIPA buffer containing protease and phosphatase inhibitors (Mukherjee A and Rotwein P, Mol Endocrinol 22, 1238-1250 (2008); incorporated by reference herein). Protein aliquots (12.5 μg/lane) were resolved by SDS PAGE (10% separating gels), and transferred onto Immobilon-FL membranes. Membranes were incubated in 50% AquaBlock for 60 min, followed by addition of primary antibodies at 1:1000 dilution for 16 hr, and secondary antibodies for 90 min at 1:5000. Images were collected using the LiCoR Odyssey and analysis software version 3.0 (Lincoln, Nebr.)."}, "[3]": {"tested_on": "Akt", "experiment": "FoxO1-clover reporter live-cell imaging in HeLa cells", "assay_type": "cell-based", "details": "IGF-I 500 pM, insulin 1400 pM, EGF 4.2 nM, PDGF-BB 4.1 nM, PDGF-AA 3.5 nM; 90 min", "method": "HeLa cells (ATCC #CCL2) were incubated in DMEM supplemented with 10% FBS. Cells were transduced at 50% of confluent density with concentrated FoxO1-clover virus in the presence of polybrene (6 μg/ml), as described (Gross S M and Rotwein P, Skelet Muscle 3, doi10.1186/2044-5040-3-10 (2013); incorporated by reference herein), and sorted by fluorescence intensity with a Becton-Dickinson Influx cell sorter. Reporter expression was stable for at least 10 passages in each sorted cell population. C3H10T1/2 mouse embryonic fibroblasts (ATC #CCL226) stably expressing FoxO1-clover (Gross and Rotwein, 2015), were maintained under selection with puromycin (2 μg/ml).\nas §2, with “tracked. The relative nuclear intensity of the FoxO1-clover reporter protein was calculated in each cell by normalizing the values measured at time 0 to 100%. This corresponded to incubation in serum-free medium (SFM). In graphs in which single cell responses were plotted with C3H10T1/2 cells, we applied a time-weighted smoothing filter to each data point. This consisted of averaging contributions from the two prior and two succeeding times (adding 50% of the prior or succeeding time point, and 25% of the next succeeding or earlier time point to 100% of the value of the time point in question, and then dividing by 2.5).” for “tracked.”\nShort-term responses to individual growth factors: C3H10T1/2 cells were incubated in serum-free Fluorobrite medium plus 2 mM L-glutamine and 0.1% bovine serum albumin for 90 min. Different concentrations of growth factors were added and images were collected every 2 min for 90 min. Growth factors included insulin [0 to 1400 pM], EGF [0 to 4.2 nM], PDGF-AA [0 to 1400 pM], or PDGF-BB [0 to 104 pM]. HeLa cells were incubated in serum-free Fluorobrite medium for 120 min and then incubated with insulin [1400 pM], EGF [4.2 nM], PDGF-AA [3.5 nM], PDGF-BB [4.1 nM], or R3-486 IGF-I [500 pM], with images collected every 2 min."}, "[4]": {"details": "two highest concentrations of PDGF-AA"}, "[5]": {"details": "higher concentrations of PDGF-BB"}, "[6]": {"details": "lower growth factor concentrations"}},
  "note": "Where two headings read alike, the source gives them in different places.",
  "data": [
    {"compound": "C[C@]1(O)C[C@@H](c2nc(-c3ccc4ccc(-c5ccccc5)nc4c3)c3c(N)nccn32)C1", "note": "[Linsitinib, reference compound]", "values": [
      {"measurement": "effect of inhibitor on IGF-I-mediated reporter localization", "setting": "[1]; IGF-I 500 pM", "result": "dose-dependent decline in maximal IGF-I-mediated cytoplasmic localization of the FoxO1-clover reporter molecule"}
    ]},
    {"compound": "Oc1cccc(-c2nc(N3CCOCC3)c3oc4ncccc4c3n2)c1", "note": "[PI103, reference compound]", "values": [
      {"measurement": "fraction of reporter in the nucleus", "setting": "[1]; 60 min after PI103 500 nM, following 60 min IGF-I 250 pM, scaled 0% = IGF-I, 100% = leptomycin", "result": "~56", "unit": "%"},
      {"measurement": "effect of inhibitor on IGF-I-mediated reporter localization", "setting": "[1]; IGF-I 500 pM", "result": "dose-dependent decline in maximal IGF-I-mediated cytoplasmic localization of the FoxO1-clover reporter molecule"},
      {"measurement": "enhancement of mean rate of nuclear import by inhibition of PI3-kinase", "setting": "[1]; Lepto plus PI103 vs Lepto alone", "result": "up to 4 fold"},
      {"measurement": "IC50", "setting": "[1]; IGF-I 500 pM, read-out: IC50 for IGF-I-mediated signaling", "result": "50 to 200", "unit": "nM"},
      {"measurement": "IC50", "setting": "[1]; PDGF-BB 830 pM, read-out: IC50 for PDGF-BB-mediated signaling", "result": "20 to 50", "unit": "nM"},
      {"measurement": "increase in nuclear localization of the reporter compared with serum-free medium alone", "setting": "[1]; PI103 500 nM added to cells in SFM", "result": "~10", "unit": "%"},
      {"measurement": "time after addition of PI103 at which N/C=1", "setting": "[1]; PI103 500 nM after IGF-I 250 pM", "result": "~15", "unit": "min"},
      {"measurement": "mean rate of nuclear import of FOXO1-clover", "setting": "[1]; leptomycin B 100 nM plus PI103 500 nM", "result": "> 12", "unit": "% per min"}
    ]},
    {"compound": "CCC(=C/[C@H](C)C/C=C/C(C)=C/[C@@H](C)C(=O)[C@@H](C)[C@H](O)[C@@H](C)C/C(C)=C/C(=O)O)/C=C/[C@@H]1OC(=O)C=C[C@@H]1C", "note": "[leptomycin B, reference compound]", "values": [
      {"measurement": "half-maximal time of nuclear appearance of reporter after leptomycin B", "setting": "[1]; leptomycin B 100 nM after 60 min IGF-I 25 pM", "result": "~5", "unit": "min"},
      {"measurement": "half-maximal time of nuclear appearance of reporter after leptomycin B", "setting": "[1]; leptomycin B 100 nM after 60 min IGF-I 250 pM", "result": "~25", "unit": "min"},
      {"measurement": "change of nuclear intensity of the reporter after subsequent leptomycin", "setting": "[1]; leptomycin B 100 nM after PI103 in SFM", "result": "nearly a doubling"},
      {"measurement": "mean rate of nuclear import of FOXO1-clover", "setting": "[1]; leptomycin B 100 nM alone, single exponential fit of individual cells", "result": "~3", "unit": "% per min"}
    ]},
    {"compound": "EGF: mouse EGF (Gibco-Life Technologies), peptide growth factor (NSYPGCPSSYDGYCLNGGVCMHIESLDSYTCNCVIGYSGDRCQTRDLRWWELR; Epidermal growth factor; UniProt P01132 977-1029, looked up)", "values": [
      {"measurement": "change of nuclear levels of the reporter on growth factor addition (result in words)", "setting": "[1]; population level", "result": "rapid, dose-dependent, and transient decreases in nuclear levels of the FoxO1-clover reporter protein"},
      {"measurement": "time by which signal intensity was waning", "setting": "[1]; population level, after EGF treatment", "result": 45, "unit": "min"},
      {"measurement": "time to half-maximal translocation/accumulation of reporter in the cytoplasm after onset of incubation", "setting": "[1]; population level", "result": "6 to 9", "unit": "min"},
      {"measurement": "time to maximal translocation values", "setting": "[1]; population level", "result": "~13", "unit": "min"},
      {"measurement": "response to a second treatment with the same growth factor", "setting": "[1]; sequential exposures, IGF-I 50 or 500 pM with 90-min washout, EGF 4.2 nM after 60 min EGF", "result": "minimally promoted FoxO1-clover reporter translocation out of the nucleus"},
      {"measurement": "time course of Akt and PRAS40 phosphorylation (result in words)", "setting": "[2]", "result": "Similarly transient effects"},
      {"measurement": "signaling response in HeLa FoxO1-clover cells (result in words)", "setting": "[3]", "result": "transient responses"}
    ]},
    {"compound": "PDGF-AA: recombinant human PDGF-AA (Thermo Scientific); binds almost exclusively to the PDGF-α receptor", "values": [
      {"measurement": "change of nuclear levels of the reporter on growth factor addition (result in words)", "setting": "[1]; population level", "result": "rapid, dose-dependent decreases in nuclear levels of FoxO1-clover"},
      {"measurement": "decline of population response from peak values", "setting": "[1]; over the next 40 min after the peak", "result": "50-75%"},
      {"measurement": "time to half-maximal translocation/accumulation of reporter in the cytoplasm after onset of incubation", "setting": "[1]; population level", "result": "6 to 10", "unit": "min"},
      {"measurement": "time to maximal translocation values", "setting": "[1]; population level", "result": "~14", "unit": "min"},
      {"measurement": "fraction of cells demonstrating sustained effects", "setting": "[1]; [4]", "result": "10-15%"},
      {"measurement": "fraction of cells showing no or minimal responses", "setting": "[1]; [4]", "result": "25-30%"},
      {"measurement": "time course of Akt and PRAS40 phosphorylation (result in words)", "setting": "[2]", "result": "Similarly brief effects"},
      {"measurement": "signaling response in HeLa FoxO1-clover cells (result in words)", "setting": "[3]", "result": "ineffective"}
    ]},
    {"compound": "PDGF-BB: recombinant human PDGF-BB (Invitrogen); binds PDGF-α and PDGF-β receptors", "values": [
      {"measurement": "duration of maintained cytoplasmic localization of the reporter", "setting": "[1]; [5]", "result": "at least 90 min"},
      {"measurement": "time to half-maximal accumulation of FoxO1-clover in the cytoplasm", "setting": "[1]; [5]", "result": "< 5", "unit": "min"},
      {"measurement": "time to half-maximal accumulation of FoxO1-clover in the cytoplasm", "setting": "[1]; [6]", "result": "8 to 9", "unit": "min"},
      {"measurement": "time to maximal values", "setting": "[1]; [6]", "result": "~14", "unit": "min"},
      {"measurement": "fraction of cells showing large and sustained signaling responses", "setting": "[1]; peak concentrations of PDGF-BB", "result": "90-99%"},
      {"measurement": "subcellular localization of FOXO1-clover (result in words)", "setting": "[1]; serum-starved cells, 60 min, 10% FBS, PDGF-BB 206 pM, R3-IGF-I 1 nM, BMP-2 15 nM", "result": "rapid and sustained translocation of the reporter from the nucleus to the cytoplasm"},
      {"measurement": "Akt phosphorylation (pAkt T308 immunoblot)", "setting": "[2]; 60 min, 10% FBS, PDGF-BB 206 pM, R3-IGF-I 1 nM, BMP-2 15 nM", "result": "stimulation of Akt phosphorylation"},
      {"measurement": "time course of Akt and PRAS40 phosphorylation (result in words)", "setting": "[2]", "result": "Similarly sustained signaling"},
      {"measurement": "signaling response in HeLa FoxO1-clover cells (result in words)", "setting": "[3]", "result": "transient responses"}
    ]}
  ]
}
